Assay results published in patent US4039540A, “3-Substituted quinoxaline-2-carboxamide-1,4-dioxides” (Pfizer Inc., priority 1975, dated 1977).
≈ marks a conversion by molar mass, not a printed value. Where two headings read alike, the source gives them in different places.

Experiments:
E. coli [1] = assay: in vitro antibacterial activity, two-fold serial dilution in Brain-Heart Infusion Broth (MIC); format: cell-based; conditions: Escherichia coli, overnight, anaerobic
Method: (§1) The broth is inoculated with bacteria and with the test quinoxaline-1,4-dioxide and then it is incubated overnight under anerobic conditions. On the next day, the test is read visually. The minimum inhibitory concentration (MIC) of test compound is the lowest concentration which prevents turbidity, i.e., which prevents growth of the microorganism.
(§2) In vitro and in vivo activity of representative compounds of this invention, determined as aforesaid, are reported in the following tabulation for compounds of the formula: [drawing 12]

Strep. pyrogens = assay: as above; format: cell-based; conditions: overnight, anaerobic
Method: as §1, §2

pathogenic bacteria = assay: in vivo activity in infected mice, last four lines of the table; conditions: bacterium and dose in drawing 28, not readable; for IN VIVO number of survivors among the treated animals (head drawing 28): subcutaneous
Method: (§3) In determining the in vivo activity of the quinoxaline-1,4-dioxides of this invention, the test compound is administered to mice which have been infected by […] injection of a lethal inoculum of pathogenic bacteria. The test compound is administered using a multiple dosing regimen and using either the oral (PO) or the subcutaneous (SC) route. The inoculum of bacteria varies from about 1 to about 10 times the amount needed to kill 100% of the mice under the conditions of the test. At the end of the test, the activity of the compound is assessed by counting the number of survivors among the treated animals.
as §2

Strep. pyogenes = assay: in vivo activity in mice infected with a lethal inoculum of Strep. pyogenes; conditions: Streptococcus pyogenes, multiple dosing
Method: as §3, §2

E. coli [2] = assay: in vivo activity in mice infected with a lethal inoculum of E. coli; conditions: Escherichia coli, sc, subcutaneous, multiple dosing, read-out: IN VIVO E. coli, number of survivors among the treated animals
Method: as §3, §2

[3] = oral, read-out: IN VIVO Strep. pyogenes, number of survivors among the treated animals, PO (data in parenthesis)
[4] = sc, subcutaneous, read-out: IN VIVO Strep. pyogenes, number of survivors among the treated animals

| Compound | MIC (E. coli [1]) [µg/mL] | MIC (Strep. pyrogens) [µg/mL] | IN VIVO number of survivors among the treated animals, PO (data in parenthesis; head drawing 28) (pathogenic bacteria) | IN VIVO number of survivors among the treated animals (head drawing 28) (pathogenic bacteria) | responders at 50 mg/kg (Strep. pyogenes; [3]) [%] | responders at 50 mg/kg (Strep. pyogenes; [4]) [%] | responders at 25 mg/kg (E. coli [2]) [%] |
| --- | --- | --- | --- | --- | --- | --- | --- |
| CN(C)C(=O)c1c(CS(=O)(=O)CCCCN2CCCCC2)[n+]([O-])c2ccccc2[n+]1[O-] [N(CH3)2; drawing 30; H] | 12.5 (≈ 27.7 µM) | 6.25 (≈ 13.9 µM) | 1/10 | 8/10 |  |  |  |
| NC(=O)c1c(CS(=O)(=O)CCCCN2CCCCC2)[n+]([O-])c2ccccc2[n+]1[O-] [NH2; drawing 31; H] | 25 (≈ 59.2 µM) | 12.5 (≈ 29.6 µM) | 0/10 | 9/10 |  |  |  |
| O=C(NCCO)c1c(CS(=O)(=O)CCO)[n+]([O-])c2ccccc2[n+]1[O-] [NHCH2 CH2 OH; SO2 CH2 CH2 OH; H] | 100 (≈ 269 µM) | 25 (≈ 67.3 µM) |  |  | 10 | 30 | 10 |
| O=C(NCCO)c1c(CS(=O)(=O)CCCN2CCCCC2)[n+]([O-])c2ccccc2[n+]1[O-] [NHCH2 CH2 OH; drawing 22; H] | 25 (≈ 55.2 µM) | 50 (≈ 110 µM) |  |  | 20 | 100 | 20 |
| CCSCCNC(=O)c1c(CS(=O)(=O)CCO)[n+]([O-])c2ccccc2[n+]1[O-] [NHCH2 CH2 SCH2 CH3; SO2 CH2 CH2 OH; H] | 100 (≈ 241 µM) | 1.56 (≈ 3.76 µM) |  |  | 0 | 10 | 50 |
| CCNC(=O)c1c(CSCCCOC(C)=O)[n+]([O-])c2ccccc2[n+]1[O-] [NHCH2 CH3; SCH2 CH2 CH2 OAc; H] | 25 (≈ 65.9 µM) | 3.12 (≈ 8.24 µM) |  |  | 20 | 10 | 0 |
| CCNC(=O)c1c(CSCCO)[n+]([O-])c2ccccc2[n+]1[O-] [NHCH2 CH3; SCH2 CH2 OH; H] | 6.25 (≈ 19.3 µM) | 3.12 (≈ 9.66 µM) |  |  | 20 | 20 | 40 |
| CCNC(=O)c1c(CS(=O)(=O)CCCN(C)C)[n+]([O-])c2ccccc2[n+]1[O-] [NHCH2 CH3; SO2 (CH2)3 N(CH3)2; H] | 12.5 (≈ 31.5 µM) | 1.56 (≈ 3.94 µM) |  |  | 100 | 100 | 100 |
| CCNC(=O)c1c(CS(=O)(=O)CCCO)[n+]([O-])c2ccccc2[n+]1[O-] [NHCH2 CH3; SO2 CH2 CH2 CH2 OH; H] | 6.25 (≈ 16.9 µM) | < 0.39 |  |  | 20 | 80 | 10 |
| CCNC(=O)c1c(CS(=O)(=O)CCCN2CCOCC2)[n+]([O-])c2ccccc2[n+]1[O-] [NHCH2 CH3; drawing 17; H] | 25 (≈ 57 µM) | 12.5 (≈ 28.5 µM) |  |  | 80 | 100 | 60 |
| CCNC(=O)c1c(CS(=O)(=O)CCCN2CCCCC2)[n+]([O-])c2ccccc2[n+]1[O-] [NHCH2 CH3; drawing 26; H] | 12.5 (≈ 28.6 µM) | 3.12 (≈ 7.16 µM) |  |  | 90 | 100 | 60 |
| CCNC(=O)c1c(CS(=O)(=O)CCCCN2CCCCC2)[n+]([O-])c2ccccc2[n+]1[O-] [NHCH2 CH3; drawing 32; H] | 12.5 (≈ 27.7 µM) | 6.25 (≈ 13.9 µM) | 7/10 | 4/10 |  |  |  |
| O=C(NCC(O)CO)c1c(CS(=O)(=O)CCO)[n+]([O-])c2ccccc2[n+]1[O-] (stereo not shown) [NHCH2 CHOHCH2 OH; SO2 CH2 CH2 OH; H] | 200 (≈ 498 µM) | 6.25 (≈ 15.6 µM) |  |  | 70 | 40 | 0 |
| CC(O)CNC(=O)c1c(CS(=O)(=O)CCO)[n+]([O-])c2ccccc2[n+]1[O-] (stereo not shown) [NHCH2 CHOHCH3; SO2 CH2 CH2 OH; H] | 100 (≈ 259 µM) | 12.5 (≈ 32.4 µM) |  |  | 10 | 0 | 20 |
